As usually defined, the melting point is the temperature, or range, at which the solid turns liquid.

Counter-ions that a name gives are not always drawn.

Turning to `c1ccc(-c2nc3ccccc3c3c2nc(-c2ccccc2)n3CCC2CCNCC2)cc1` [Example 112, 2,4-Diphenyl-1-[2-(4-piperidyl)ethyl]-1H-imidazo[4,5-c]quinoline], the melting point was 209 to 211 °C.
Next, `c1ccc(-c2nc3ccccc3c3c2nc(-c2ccc[nH]2)n3CCC2CCNCC2)cc1` (hydrate or solvate) [Example 113, 4-Phenyl-1-[2-(4-piperidyl)ethyl]-2-(2-pyrrolyl)-1H-imidazo[4,5-c]quinoline]: 268 to 270 °C.
For `Cc1ccc2c(c1)nc(C(F)(F)F)c1nc(-c3ncc[nH]3)n(CCC3CCNCC3)c12` (as salt: trifluoroacetate) (hydrate or solvate) [Example 89, 2-(2-1H-Imidazolyl)-7-methyl-1-[2-(4-piperidyl)ethyl]-4-trifluoromethyl-1H-imidazo[4,5-c]quinoline] the value was 303 to 305 °C (dec.); for `O=C(CCl)NCCn1c(-c2ccc[nH]2)nc2c(C(F)(F)F)nc3ccccc3c21` [Example 125, 2-chloro-N-[2-[2-(2-pyrrolyl)-4-trifluoromethyl-1H-imidazo-[4,5-c]quinolin-1-yl]ethyl]acetamide], 234 to 235 °C.
Next, `c1c[nH]c(-c2nc3c(C4CC4)nc4ccccc4c3n2CCC2CCNCC2)c1` (hydrate or solvate) [Example 111, 4-Cyclopropyl-1-[2-(4-piperidyl)ethyl]-2-(2-pyrrolyl)-1H-imidazo[4,5-c]quinoline]: 212 to 213.5 °C; `CNCC(=O)NCCn1c(-c2ccccc2)nc2c(C(F)(F)F)nc3ccccc3c21` [Example 127, 2-Methylamino-N-[2-(2-phenyl-4-trifluoromethyl-1H-imidazo[4,5-c]quinolin-1-yl)-ethyl]acetamide]: 208 to 209 °C.
Regarding `FC(F)(F)c1nc2cc(Cl)ccc2c2c1nc(C1CCCC1)n2CCC1CCNCC1` (as salt: trifluoroacetate), the melting point is 246 to 248 °C (dec.).
As to `Cc1cccc2c1nc(C(F)(F)F)c1nc(-c3ncc[nH]3)n(CCC3CCNCC3)c12` (as salt: trifluoroacetate) (hydrate or solvate) [Example 96, 2-(2-1H-Imidazolyl)-6-methyl-1-[2-(4-piperidyl)ethyl]-4-trifluoromethyl-1H-imidazo[4,5-c]quinoline], the melting point was 306 to 308 °C (dec.).
For `FC(F)(F)c1nc2ccccc2c2c1nc(-c1ccccc1)n2CCC1CC2CCC(C1)N2` (stereo not shown) (as salt: trifluoroacetate) the value was 249 to 251 °C (dec.); for `FC(F)(F)c1nc2cc(Cl)ccc2c2c1nc(-c1ccco1)n2CCC1CCNCC1` (as salt: trifluoroacetate), 219 to 221 °C (dec.).
Next, `c1ccc(-c2nc3c(-c4cccs4)nc4ccccc4c3n2CCC2CCNCC2)cc1` (as salt: salt) [Example 115, 2-Phenyl-1-[2-(4-piperidyl)ethyl]-4-(2-thienyl)-1H-imidazo[4,5-c]quinoline]: 210 to 212 °C; `FC(F)(F)c1nc2cc(Cl)ccc2c2c1nc(-c1ncc[nH]1)n2CCC1CCNCC1` (as salt: trifluoroacetate) [Example 75, 7-Chloro-2-(2-1H-imidazolyl)-1-[2-(4-piperidyl)ethyl]-4-trifluoromethyl-1H-imidazo[4,5-c]quinoline]: 290 to 295 °C (dec.).
Next, `FC(F)(F)c1nc2ccccc2c2c1nc(-c1ccccc1)n2CCN1CCNCC1` [Example 99, 2-Phenyl-1-[2-(1-piperazinyl)ethyl]-4-trifluoromethyl-1H-imidazo[4,5-c]-quinoline]: 187 to 188 °C; `CN(C)CCn1c(-c2ccc[nH]2)nc2c(C(F)(F)F)nc3ccccc3c21` (as salt: fumarate) [Example 51, 1-(2-Dimethylaminoethyl)-2-(2-pyrrolyl)-4-trifluoromethyl-1H-imidazo[4,5-c]-quinoline]: 228 to 230 °C (dec.).
On to `Cc1ccc2c(c1)nc(C(F)(F)F)c1nc(-c3ccc[nH]3)n(CCC3CCNCC3)c12` (as salt: trifluoroacetate) (hydrate or solvate) [Example 87, 7-Methyl-1-[2-(4-piperidyl)ethyl]-2-(2-pyrrolyl)-4-trifluoromethyl-1H-imidazo-[4,5-c]quinoline], for which the melting point is 280 to 284 °C (dec.).
Next, `FC(F)(F)c1nc2ccccc2c2c1nc(-c1cccs1)n2CCC1CCNCC1` (as salt: trifluoroacetate) (hydrate or solvate) [Example 66, 1-[2-(4-Piperidyl)ethyl]-2-(2-thienyl)-4-trifluoromethyl-1H-imidazo[4,5-c]-quinoline]: 237 to 239 °C; `Fc1ccc2c(c1)nc(C(F)(F)F)c1nc(-c3ccccc3)n(CCC3CCNCC3)c12` (as salt: trifluoroacetate) [Example 80, 7-Fluoro-2-phenyl-1-[2-(4-piperidyl)ethyl]-4-trifluoromethyl-1H-imidazo[4,5-c]-quinoline]: 240 to 242 °C (dec.).
For `c1ccc(-c2nc3c(C4CC4)nc4ccccc4c3n2CCC2CCNCC2)cc1` (as salt: fumarate) (hydrate or solvate) [Example 110, 4-Cyclopropyl-2-phenyl-1-[2-(4-piperidyl)ethyl]-1H-imidazo[4,5-c]quinoline] the value was 142.5 to 147 °C (dec.).
For `c1ccc(-c2nc3c(-c4ccco4)nc4ccccc4c3n2CCC2CCNCC2)cc1` the value was 224.5 to 225.5 °C.
In the case of `FC(F)(F)c1nc2ccccc2c2c1nc(-c1ccccc1)n2CCC1CNCCO1` (stereo not shown) (as salt: trifluoroacetate) (hydrate or solvate) [Example 101, 1-[2-(2-Morpholinyl)ethyl]-2-phenyl-4-trifluoromethyl-1H-imidazo[4,5-c]-quinoline], the melting point was 224 to 228 °C (dec.).
For `N#Cc1nc2ccccc2c2c1nc(-c1ccccc1)n2CCC1CCNCC1` (as salt: trifluoroacetate) (hydrate or solvate) [Example 117, 4-Cyano-2-phenyl-1-[2-(4-piperidyl)ethyl]-1H-imidazo[4,5-c]quinoline], the melting point is 245 to 251 °C (dec.).
Next, `CN(C)CC(=O)NCCn1c(-c2ccc[nH]2)nc2c(C(F)(F)F)nc3ccccc3c21.O=C(O)/C=C/C(=O)O` [Example 129, 2-Dimethylamino-N-[2-[2-(2-pyrrolyl)-4-trifluoromethyl-1H-imidazo[4,5-c]quinolin-1-yl]ethyl]acetamide fumarate]: 219 to 222 °C (dec.).
For `FC(F)(F)c1nc2ccccc2c2c1nc(-c1ccccc1)n2CCC1CCCNC1` (stereo not shown) (as salt: trifluoroacetate), the melting point was 229.5 to 231.5 °C (dec.).
For the compound `FC(F)(F)c1nc2ccccc2c2c1nc(-c1nccs1)n2CCC1CCNCC1` [Example 70, 1-[2-(4-Piperidyl)ethyl]-2-(2-thiazolyl)-4-trifluoromethyl-1H-imidazo[4,5-c]-quinoline], the melting point lay within 199 to 200 °C.
Consider `Fc1ccc2c(c1)nc(C(F)(F)F)c1nc(-c3ccc[nH]3)n(CCC3CCNCC3)c12` (as salt: trifluoroacetate) (hydrate or solvate) [Example 81, 7-Fluoro-1-[2-(4-piperidyl)ethyl]-2-(2-pyrrolyl)-4-trifluoromethyl-1H-imidazo-[4,5-c]quinoline], for which the melting point is 252 to 254 °C (dec.).

The values above are taken from patent US20040054182A1, “1h-imidazopyridine derivatives” (priority 2000, published 2004).
